Laboratory results reported in EP2276481B1, “USE OF BENZO-FUSED HETEROCYCLE SULFAMIDE DERIVATIVES FOR THE TREATMENT OF ANXIETY” (Janssen Pharmaceutica, N.V., priority 2008, dated 2009).

Tests used:
Mouse = assay: Four Plate Test, Mouse; type: in vivo; details: for Number of Punished Crossings % Change: change from vehicle control
Text: The Four Plate assay was run according to the procedure as described by Aron et al (Neuropharmacology, 10, 459-469, 1971). In this assay, the rodent experiences an electric shock upon crossing from one plate to another. Anxiolytics (such as benzodiazepines) increase the number of punished crossings.
Animals were placed individually in a white plastic enclosure containing a floor consisting of 4 metal plates connected to an electric shock generator (Apelex : Type 011346). The mouse was left to explore freely for 15 seconds. Then, every time the mouse crossed from one plate to another, it received a weak electric shock (2.5 mA, 1.5 s). The number of punished crossings were counted during a 1 minute test. Ten (10) mice were used for each study group. The test was performed blind.
(§1) Compound #8 was evaluated at 30 mg/kg, 60 mg/kg and 120 mg/kg doses, administered p.o. 60 minutes before the test, and compared with a vehicle control group. Compound #8 was homogenized and dispersed using a mortar and a pestle in 0.2% hydroxypropylmethylcellulose (HPMC) in distilled water, which served as the vehicle. As a positive control, Clobazam (32 mg/kg p.o.), was administered under the same experimental conditions. Clobazam as URBANYL®tablets (32 mg/kg p.o.) were dispersed in 0.2% hydroxypropylmethylcellulose (HPMC) in distilled water for administration. Each experiment therefore included 5 study groups of 10 mice each.
Data were analyzed by comparing groups treated with compound #8 with groups treated with vehicle control using unpaired Student's t tests. Table 5: Effect of Compound #8 in Four Plate

Male Rj:NMRI mice = assay: Elevated Plus Maze, Mouse (EPM); type: in vivo; details: for Closed Arms Number of Entries % change / Open Arms Number of Entries % change / Open Arms Time Spent (sec) % change: change from vehicle control
Text: Rodents avoid open spaces (in the case of the assay apparatus, the open arms of an elevated plus-maze). Compounds which have anti-anxiety activity increase exploratory activity of the rodents in the open arms of the elevated plus-maze. The EPM assay was run according to the procedure as described by Handley and Mithani (Naunyn. Schmied. Arch. Pharmacol., 327, 1-5, 1984).
Male Rj:NMRI mice, weighing 20 - 30 g (max. range per experiment = 5 g) at the beginning of the experiments, were obtained from Elevage Janvier, 53940 Le Genest-Saint-Isle, France and used in the assay. The animals were delivered to the laboratory at least 5 days before the experiments during which time they were acclimatized to laboratory conditions. The mice were housed in groups of 10 in Macrolon cages (25 x 19 x 13 cm) on wood litter (Litalabo-SPPS, 95100 Argenteuil, France) with free access to food (Code 113 - SAFE, 89290 Augy, France) and water until tested (or as indicated otherwise). The animal house was maintained under artificial lighting (12 hours) between 7:00 and 19:00 in a controlled ambient temperature of 21 ± 3°C, and relative humidity between 30-80%.
The elevated plus-maze consisted of 4 arms of equal length and width (14 x 5 cm) arranged in the form of a plus sign (+). Two opposite arms were enclosed by 12 cm high walls (closed arms). The 2 other arms had no walls (open arms). The maze was raised 56 cm above the floor. A mouse was placed in the centre of the plus-maze and left to explore the maze for 5 minutes. The number of entries into the open and closed arms and the time spent in the open arms was recorded. Ten (10) mice were used for each study group. The test was performed blind.
as §1, with “(16” for “(32”
Data were analyzed by comparing groups treated with compound #8 with groups treated with vehicle control using unpaired Student's t tests. Table 4: Effect of Compound #8 in EPM

[1] = 16 mg/kg p.o., positive control, same experimental conditions, t test vs vehicle p < 0.001
[2] = 16 mg/kg p.o., positive control
[3] = 30 mg/kg p.o. 60 minutes before the test
[4] = 60 mg/kg p.o. 60 minutes before the test
[5] = 120 mg/kg p.o. 60 minutes before the test
[6] = 30 mg/kg p.o. 60 minutes before the test, 5 minutes in maze, t test vs vehicle (NS)
[7] = 60 mg/kg p.o. 60 minutes before the test, 5 minutes in maze, t test vs vehicle p < 0.01
[8] = 120 mg/kg p.o. 60 minutes before the test, 5 minutes in maze, t test vs vehicle p < 0.05

CN1C(=O)CC(=O)N(c2ccccc2)c2cc(Cl)ccc21 [CLOBAZAM, Clobazam, reference compound]
Number of Punished Crossings Mean ± S.E.M. (Mouse; 32 mg/kg p.o., positive control, same experimental conditions, t test vs vehicle p < 0.001): 9.9 ± 1.2 (***) | Open Arms Number of Entries Mean ± S.E.M. (Male Rj:NMRI mice; [1]): 11.7 ± 1.1 (***) | Open Arms Time Spent (sec) Mean ± S.E.M. (Male Rj:NMRI mice; [1]): 120.1 ± 13.1 s | Closed Arms Number of Entries Mean ± S.E.M. (Male Rj:NMRI mice; 16 mg/kg p.o., positive control, same experimental conditions, t test vs vehicle p < 0.05): 11.9 ± 1.5 (*) | Closed Arms Number of Entries % change (Male Rj:NMRI mice; [2]): +59% | Open Arms Number of Entries % change (Male Rj:NMRI mice; [2]): +350% | Open Arms Time Spent (sec) % change (Male Rj:NMRI mice; [2]): +567%

NS(=O)(=O)NC[C@H]1COc2cc(Cl)ccc2O1 [Compound #8, (2S)-(-)-N-(6-Chloro-2,3-dihydro-benzo[1,4]dioxin-2-ylmethyl)-sulfamide]
Number of Punished Crossings Mean ± S.E.M. (Mouse; 30 mg/kg p.o. 60 minutes before the test, 1 minute test, t test vs vehicle (NS)): 4.5 ± 0.6 (NS) | Number of Punished Crossings % Change (Mouse; [3]): +15% | Number of Punished Crossings Mean ± S.E.M. (Mouse; 60 mg/kg p.o. 60 minutes before the test, 1 minute test, t test vs vehicle (NS)): 4.5 ± 0.3 (NS) | Number of Punished Crossings % Change (Mouse; [4]): +15% | Number of Punished Crossings Mean ± S.E.M. (Mouse; 120 mg/kg p.o. 60 minutes before the test, 1 minute test, t test vs vehicle p < 0.01): 6.6 ± 0.6 (**) | Number of Punished Crossings % Change (Mouse; [5]): +69% | Closed Arms Number of Entries Mean ± S.E.M. (Male Rj:NMRI mice; [6]): 8.5 ± 0.9 (NS) | Open Arms Number of Entries Mean ± S.E.M. (Male Rj:NMRI mice; [6]): 3.9 ±0.7 (NS) | Open Arms Time Spent (sec) Mean ± S.E.M. (Male Rj:NMRI mice; 30 mg/kg p.o. 60 minutes before the test, 5 minutes in maze, t test vs vehicle p < 0.01): 44.6 ± 8.0 s | Closed Arms Number of Entries % change (Male Rj:NMRI mice; [3]): +13% | Open Arms Number of Entries % change (Male Rj:NMRI mice; [3]): +50% | Open Arms Time Spent (sec) % change (Male Rj:NMRI mice; [3]): +148% | Closed Arms Number of Entries Mean ± S.E.M. (Male Rj:NMRI mice; [7]): 10.3 ± 0.8 (**) | Open Arms Number of Entries Mean ± S.E.M. (Male Rj:NMRI mice; [7]): 5.9 ± 1.0 (**) | Open Arms Time Spent (sec) Mean ± S.E.M. (Male Rj:NMRI mice; [7]): 54.1 ± 10.6 s | Closed Arms Number of Entries % change (Male Rj:NMRI mice; [4]): +37% | Open Arms Number of Entries % change (Male Rj:NMRI mice; [4]): +127% | Open Arms Time Spent (sec) % change (Male Rj:NMRI mice; [4]): +201% | Open Arms Time Spent (sec) Mean ± S.E.M. (Male Rj:NMRI mice; 120 mg/kg p.o. 60 minutes before the test, 5 minutes in maze, t test vs vehicle p < 0.01): 38.6 ± 5.2 s | Closed Arms Number of Entries Mean ± S.E.M. (Male Rj:NMRI mice; [8]): 10.0 ± 1.1 (*) | Open Arms Number of Entries Mean ± S.E.M. (Male Rj:NMRI mice; [8]): 4.5 ± 0.6 (*) | Closed Arms Number of Entries % change (Male Rj:NMRI mice; [5]): +33% | Open Arms Number of Entries % change (Male Rj:NMRI mice; [5]): +73% | Open Arms Time Spent (sec) % change (Male Rj:NMRI mice; [5]): +114%
